Experimental data taken from PubChem BioAssay AID2060903 (Molecular Pharmacology Branch, DTP, NCI, 2025).

Tested on: 377384-186-R-J1-PDC complex spheroid viability
Assay: Anticancer human tumor 377384-186-R-J1-PDC patient-derived pancreatic carcinoma cell line growth inhibition [RAS]
Settings: for IC50: curve of first compound; for viability, T/C: stronger effect = lower value; active = viability on the fitted dose curve at most 10% of control; inactive = the rest
Procedure, shortened: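 Multi-cell-type spheroids: tumor cells plus HUVEC endothelial cells and mesenchymal stem cells. RAS-pathway inhibitors were combined with targeted agents, each dosed in half-log steps down from clinical Cmax, or from 10 microM when Cmax was unknown.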

[1] = second compound 0.000949 µM, first compound 0.00316 µM
[2] = second compound 0.000949 µM, first compound 0.01 µM
[3] = second compound 0.000949 µM, first compound 0.0316 µM
[4] = second compound 0.000949 µM, first compound 0.1 µM
[5] = second compound 0.000949 µM, first compound 0.316 µM
[6] = second compound 0.000949 µM, first compound 1 µM
[7] = second compound 0.003 µM, first compound 0.00316 µM
[8] = second compound 0.003 µM, first compound 0.01 µM
[9] = second compound 0.003 µM, first compound 0.0316 µM
[10] = second compound 0.003 µM, first compound 0.1 µM
[11] = second compound 0.003 µM, first compound 0.316 µM
[12] = second compound 0.003 µM, first compound 1 µM
[13] = second compound 0.00949 µM, first compound 0.00316 µM
[14] = second compound 0.00949 µM, first compound 0.01 µM
[15] = second compound 0.00949 µM, first compound 0.0316 µM
[16] = second compound 0.00949 µM, first compound 0.1 µM
[17] = second compound 0.00949 µM, first compound 0.316 µM
[18] = second compound 0.00949 µM, first compound 1 µM
[19] = second compound 0.03 µM, first compound 0.00316 µM
[20] = second compound 0.03 µM, first compound 0.01 µM
[21] = second compound 0.03 µM, first compound 0.0316 µM
[22] = second compound 0.03 µM, first compound 0.1 µM
[23] = second compound 0.03 µM, first compound 0.316 µM
[24] = second compound 0.03 µM, first compound 1 µM
[25] = second compound 0.0949 µM, first compound 0.00316 µM
[26] = second compound 0.0949 µM, first compound 0.01 µM
[27] = second compound 0.0949 µM, first compound 0.0316 µM
[28] = second compound 0.0949 µM, first compound 0.1 µM
[29] = second compound 0.0949 µM, first compound 0.316 µM
[30] = second compound 0.0949 µM, first compound 1 µM
[31] = second compound 0.3 µM, first compound 0.00316 µM
[32] = second compound 0.3 µM, first compound 0.01 µM
[33] = second compound 0.3 µM, first compound 0.0316 µM
[34] = second compound 0.3 µM, first compound 0.1 µM
[35] = second compound 0.3 µM, first compound 0.316 µM
[36] = second compound 0.3 µM, first compound 1 µM
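Note: spheroids exposed to compounds for seven days before readout.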

C=CC(=O)N1CCN(c2nc(OCC3CCCN3C)nc3c(F)c(-c4nc(N)cc(C)c4C(F)(F)F)c(Cl)cc23)C(C)C1 (stereo not drawn) + CCn1c(-c2cc(N3CCN(C)CC3)cnc2C(C)OC)c2c3cc(ccc31)-c1csc(n1)CC(NC(=O)C1CC1C)C(=O)N1CCCC(N1)C(=O)OCC(C)(C)C2
inactive: viability, T/C [1] 57.6% | viability, T/C [2] 48.5% | viability, T/C [3] 58% | viability, T/C [4] 62.1% | viability, T/C [5] 61.6% | viability, T/C [6] 48% | viability, T/C [7] 19.5% | viability, T/C [8] 19.7% | viability, T/C [9] 21.2% | viability, T/C [10] 19.3% | viability, T/C [11] 27.7% | viability, T/C [12] 22.1%
active: viability, T/C [13] 5.16% | viability, T/C [14] 6.78% | viability, T/C [15] 4.26% | viability, T/C [16] 6.19% | viability, T/C [17] 8.67% | viability, T/C [18] 5.16% | viability, T/C [19] 2.65% | viability, T/C [20] 2.3% | viability, T/C [21] 2.75% | viability, T/C [22] 3.22% | viability, T/C [23] 2.42% | viability, T/C [24] 1.95% | viability, T/C [25] 2.35% | viability, T/C [26] 2.29% | viability, T/C [27] 2.53% | viability, T/C [28] 2.6% | viability, T/C [29] 2.41% | viability, T/C [30] 1.71% | viability, T/C [31] 2.58% | viability, T/C [32] 2.04% | viability, T/C [33] 1.61% | viability, T/C [34] 1.52% | viability, T/C [35] 1.71% | viability, T/C [36] 1.54%
> 1000 nM: IC50 (second compound 0.000949 µM)
< 3.16 nM: IC50 (second compound 0.003 µM) | IC50 (second compound 0.00949 µM) | IC50 (second compound 0.03 µM) | IC50 (second compound 0.0949 µM) | IC50 (second compound 0.3 µM)

CC1(C)CCC(Nc2ncc(C(F)(F)F)c(-c3c[nH]c4c(P(C)(C)=O)c(C#N)ccc34)n2)CN1 (stereo not drawn) + CCn1c(-c2cc(N3CCN(C)CC3)cnc2C(C)OC)c2c3cc(ccc31)-c1csc(n1)CC(NC(=O)C1CC1C)C(=O)N1CCCC(N1)C(=O)OCC(C)(C)C2
active: viability, T/C (second compound 0.003 µM, first compound 0.0949 µM) 11.7% | viability, T/C (second compound 0.003 µM, first compound 0.3 µM) 8.33% | viability, T/C (second compound 0.00949 µM, first compound 0.000949 µM) 6.47% | viability, T/C (second compound 0.00949 µM, first compound 0.003 µM) 5.75% | viability, T/C (second compound 0.00949 µM, first compound 0.00949 µM) 5.48% | viability, T/C (second compound 0.00949 µM, first compound 0.03 µM) 5.23% | viability, T/C (second compound 0.00949 µM, first compound 0.0949 µM) 5.63% | viability, T/C (second compound 0.00949 µM, first compound 0.3 µM) 5.21% | viability, T/C (second compound 0.03 µM, first compound 0.000949 µM) 2.48% | viability, T/C (second compound 0.03 µM, first compound 0.003 µM) 2.69% | viability, T/C (second compound 0.03 µM, first compound 0.00949 µM) 2.99% | viability, T/C (second compound 0.03 µM, first compound 0.03 µM) 3.34% | viability, T/C (second compound 0.03 µM, first compound 0.0949 µM) 2.03% | viability, T/C (second compound 0.03 µM, first compound 0.3 µM) 1.64% | viability, T/C (second compound 0.0949 µM, first compound 0.000949 µM) 2.02% | viability, T/C (second compound 0.0949 µM, first compound 0.003 µM) 2.11% | viability, T/C (second compound 0.0949 µM, first compound 0.00949 µM) 1.57% | viability, T/C (second compound 0.0949 µM, first compound 0.03 µM) 1.95% | viability, T/C (second compound 0.0949 µM, first compound 0.0949 µM) 1.46% | viability, T/C (second compound 0.0949 µM, first compound 0.3 µM) 1.6% | viability, T/C (second compound 0.3 µM, first compound 0.000949 µM) 1.8% | viability, T/C (second compound 0.3 µM, first compound 0.003 µM) 1.64% | viability, T/C (second compound 0.3 µM, first compound 0.00949 µM) 1.69% | viability, T/C (second compound 0.3 µM, first compound 0.03 µM) 2.15% | viability, T/C (second compound 0.3 µM, first compound 0.0949 µM) 1.77% | viability, T/C (second compound 0.3 µM, first compound 0.3 µM) 1.54%
< 0.949 nM: IC50 (second compound 0.000949 µM) | IC50 (second compound 0.003 µM) | IC50 (second compound 0.00949 µM) | IC50 (second compound 0.03 µM) | IC50 (second compound 0.0949 µM) | IC50 (second compound 0.3 µM)
inactive: viability, T/C (second compound 0.000949 µM, first compound 0.000949 µM) 42.6% | viability, T/C (second compound 0.000949 µM, first compound 0.003 µM) 37.1% | viability, T/C (second compound 0.000949 µM, first compound 0.00949 µM) 22.9% | viability, T/C (second compound 0.000949 µM, first compound 0.03 µM) 16.4% | viability, T/C (second compound 0.000949 µM, first compound 0.0949 µM) 14.9% | viability, T/C (second compound 0.000949 µM, first compound 0.3 µM) 14% | viability, T/C (second compound 0.003 µM, first compound 0.000949 µM) 21.9% | viability, T/C (second compound 0.003 µM, first compound 0.003 µM) 16.8% | viability, T/C (second compound 0.003 µM, first compound 0.00949 µM) 10.4% | viability, T/C (second compound 0.003 µM, first compound 0.03 µM) 9.92%

C=CC(=O)Nc1cc(Nc2nccc(-c3cn(C)c4ccccc34)n2)c(OC)cc1N(C)CCN(C)C + CCn1c(-c2cccnc2C(C)OC)c2c3cc(ccc31)N1CCOC(CC(NC(=O)C(C(C)C)N(C)C(=O)C3(F)CCN(C(=O)C#CC(C)(C)N(C)C)CC3)C(=O)N3CCCC(N3)C(=O)OCC(C)(C)C2)C1
inactive: viability, T/C [1] 107% | viability, T/C [2] 83.9% | viability, T/C [3] 94.3% | viability, T/C [4] 84.5% | viability, T/C [5] 77.6% | viability, T/C [6] 40% | viability, T/C [7] 93.3% | viability, T/C [8] 96.2% | viability, T/C [9] 101% | viability, T/C [10] 80% | viability, T/C [11] 62.9% | viability, T/C [12] 44.2% | viability, T/C [13] 101% | viability, T/C [14] 100% | viability, T/C [15] 90.5% | viability, T/C [16] 84.6% | viability, T/C [17] 64.1% | viability, T/C [18] 42.6% | viability, T/C [19] 104% | viability, T/C [20] 99.1% | viability, T/C [21] 97.6% | viability, T/C [22] 75.6% | viability, T/C [23] 69.9% | viability, T/C [24] 41.9% | viability, T/C [25] 91.3% | viability, T/C [26] 90.2% | viability, T/C [27] 85% | viability, T/C [28] 76.7% | viability, T/C [29] 66% | viability, T/C [30] 37.7% | viability, T/C [31] 77.7% | viability, T/C [32] 81% | viability, T/C [33] 80.7% | viability, T/C [34] 82.4% | viability, T/C [35] 64.3% | viability, T/C [36] 40.9%
694 nM: IC50 (second compound 0.003 µM)
598 nM: IC50 (second compound 0.0949 µM)
639 nM: IC50 (second compound 0.3 µM)
727 nM: IC50 (second compound 0.000949 µM)
682 nM: IC50 (second compound 0.00949 µM)
699 nM: IC50 (second compound 0.03 µM)

O=C(c1ccc(F)c(F)c1Nc1ccc(I)cc1F)N1CC(O)([C@@H]2CCCCN2)C1 + CCn1c(-c2cccnc2C(C)OC)c2c3cc(ccc31)N1CCOC(CC(NC(=O)C(C(C)C)N(C)C(=O)C3(F)CCN(C(=O)C#CC(C)(C)N(C)C)CC3)C(=O)N3CCCC(N3)C(=O)OCC(C)(C)C2)C1
16.8 nM: IC50 (second compound 0.3 µM)
29.9 nM: IC50 (second compound 0.0949 µM)
36 nM: IC50 (second compound 0.03 µM)
33.2 nM: IC50 (second compound 0.000949 µM)
active: viability, T/C [5] 1.96% | viability, T/C [6] 1.6% | viability, T/C [11] 2.13% | viability, T/C [12] 0.43% | viability, T/C [17] 1.75% | viability, T/C [18] 0.87% | viability, T/C [23] 4.23% | viability, T/C [24] 0.57% | viability, T/C [29] 1.32% | viability, T/C [30] 0.36% | viability, T/C [35] 0.96% | viability, T/C [36] 0.43%
28.6 nM: IC50 (second compound 0.00949 µM)
inactive: viability, T/C [1] 87.5% | viability, T/C [2] 85.8% | viability, T/C [3] 49.2% | viability, T/C [4] 17.4% | viability, T/C [7] 103% | viability, T/C [8] 89.2% | viability, T/C [9] 63.1% | viability, T/C [10] 22.7% | viability, T/C [13] 98.8% | viability, T/C [14] 75% | viability, T/C [15] 50.3% | viability, T/C [16] 19.1% | viability, T/C [19] 96.2% | viability, T/C [20] 77.8% | viability, T/C [21] 57.3% | viability, T/C [22] 18.9% | viability, T/C [25] 85.5% | viability, T/C [26] 77.8% | viability, T/C [27] 47.5% | viability, T/C [28] 17.7% | viability, T/C [31] 77.1% | viability, T/C [32] 60.6% | viability, T/C [33] 36.9% | viability, T/C [34] 10.7%
44.8 nM: IC50 (second compound 0.003 µM)
